Assay: Verification of function of KMP using 400-m run: blood markers in healthy subjects
Format: in vivo, human
Details: 16 healthy subjects (20 to 22 years old); single dose of capsule food containing 10 mg of KMP, 3 h before two 400-m full-speed runs 90 min apart; vs placebo
Method: According to usual methods, blood samples were taken, and the concentration of each blood marker was measured. […] It is known that blood myoglobin is detected with muscle fiber damage and that its concentration increases with muscle fiber damage (J. Appl. Physiol. 83 (4): 1076-1082, 1997).
The capsule foods used in the test were prepared according to the following procedures. Quinoa grains were extracted twice with 50% aqueous ethanol at 70° C., followed by concentration under reduced pressure. To a solution obtained by purifying the resultant with resin, Aromase H2 (produced by Amano Enzyme, Inc.) was added, and the enzyme was allowed to act (conversion into aglycone) while stirring at 50° C. The resulting reaction liquid was heated to 100° C. and maintained for 15 minutes to inactivate the enzyme. Thereafter, the treated liquid was freeze-dried to give an ethanol extraction powder. To the powder, starch was added in an amount equal to the amount of the powder (on a weight basis), followed by mixing. Capsules were filled with the resulting mixture in an amount of 116 mg (including 2.5 mg of kaempferol) per capsule. The subjects ingested four capsules (10 mg of kaempferol in total) at one time. The food used as the placebo was obtained by filling capsules with only starch.

SMILES: O=c1c(O)c(-c2ccc(O)cc2)oc2cc(O)cc(O)c12 [KMP, Kaempferol]
- blood myoglobin level after running at full speed: significantly lower
